Test results published in patent publication US20240173289A1, “USE OF OXYMETHYL-MODIFIED DERIVATIVE OF QUERCETIN IN PREPARATION OF DRUG FOR INHIBITING TUMOR CELL PROLIFERATION” (ZHEJIANG UNIVERSITY, priority 2021, published 2024).
In brackets after ≈: the same amount, converted by molar mass.

What was measured:
Experiment in all cases: in vitro cell proliferation inhibition (CCK-8)
Format in all cases: cell-based
[1] = tested on: Osteosarcoma cell line 143B; details: Homo sapiens, 48 h incubation, read-out: IC50
Excerpt: (§1) Osteosarcoma cell line 143B, HOS, and U2, liver cancer cell line HepG2, breast cancer cell line MDA-MB-231 and T47D, gastric cancer cell line AGS, BGC-823, and SGC-7901, cervical cancer cells Hela, lung cancer cells A549, intestinal cancer cells Caco2, mouse glioma cells BV-2, human prostate cancer cells PC3, human thyroid cancer cell line BCPAP, human normal liver cell line L02, human normal gastric cell line GES, human umbilical vein epithelial cells HUVEC, and human embryonic lung fibroblasts WI-38 were cultured in a DMEM medium containing 10% fetal bovine serum and 1×HEPES in a humid incubator (37° C., 5% CO2). The cells were passaged with trypsin-EDTA in logarithmic phase. Certain density of cells (AGS, T47D, Caco2, BCPAP, GES, HUVEC 1×10^5 cells per well; HepG2, MDA-MB-231, BGC-823, A549, PC3, L02 8×10^4 cells per well; 143B, HOS, U2, SGC-7901, Hela, BV-2, 5×10^4 cells per well; WI-38, 3×10^5 cells per well) were inoculated in a 96-well plate, and cultured for 24 h before treatment. After replacing a fresh medium, 12.5 mg/L to 400 mg/L of quercetin, quercetin 3-methyl ether, and quercetin 3,3′-dimethyl ether dissolved with DMSO were added into the medium (a final volume ratio was 0.1%, and the DMSO was used as a […]). After incubation for 48 h, a complete medium was replaced with a serum-free medium containing 10% CCK-8 reagent. The absorbance at 450 nm and 620 nm was measured separately after the cells were incubated for 1 h. Each experiment was repeated three times independently.
as §1, with “400 mg/L,” for “400 mg/L”, “of” for “of quercetin, quercetin 3-methyl ether, and”, “DMSO was” for “DMSO were”, “into a” for “into the”

[2] = tested on: Osteosarcoma cell line HOS; details: 48 h incubation, read-out: IC50
Excerpt: as §1
as §1, with “400 mg/L,” for “400 mg/L”, “of” for “of quercetin, quercetin 3-methyl ether, and”, “DMSO was” for “DMSO were”, “into a” for “into the”

[3] = tested on: breast cancer cell line MDA-MB-231; details: Homo sapiens, 48 h incubation, read-out: IC50
Excerpt: as §1
as §1, with “400 mg/L,” for “400 mg/L”, “of” for “of quercetin, quercetin 3-methyl ether, and”, “DMSO was” for “DMSO were”, “into a” for “into the”

[4] = tested on: breast cancer cell line T47D; details: Homo sapiens, 48 h incubation, read-out: IC50
Excerpt: as §1
as §1, with “400 mg/L,” for “400 mg/L”, “of” for “of quercetin, quercetin 3-methyl ether, and”, “DMSO was” for “DMSO were”, “into a” for “into the”

[5] = tested on: cervical cancer cells Hela; details: Homo sapiens, 48 h incubation, read-out: IC50
Excerpt: as §1
as §1, with “400 mg/L,” for “400 mg/L”, “of” for “of quercetin, quercetin 3-methyl ether, and”, “DMSO was” for “DMSO were”, “into a” for “into the”

[6] = tested on: gastric cancer cell line AGS; details: 48 h incubation, read-out: IC50
Excerpt: as §1
as §1, with “400 mg/L,” for “400 mg/L”, “of” for “of quercetin, quercetin 3-methyl ether, and”, “DMSO was” for “DMSO were”, “into a” for “into the”

[7] = tested on: human prostate cancer cells PC3; details: Homo sapiens, 48 h incubation, read-out: IC50
Excerpt: as §1
as §1, with “400 mg/L,” for “400 mg/L”, “of” for “of quercetin, quercetin 3-methyl ether, and”, “DMSO was” for “DMSO were”, “into a” for “into the”

[8] = tested on: human thyroid cancer cell line BCPAP; details: Homo sapiens, 48 h incubation, read-out: IC50
Excerpt: as §1
as §1, with “400 mg/L,” for “400 mg/L”, “of” for “of quercetin, quercetin 3-methyl ether, and”, “DMSO was” for “DMSO were”, “into a” for “into the”

[9] = tested on: intestinal cancer cells Caco2; details: Homo sapiens, Caco-2, 48 h incubation, read-out: IC50
Excerpt: as §1
as §1, with “400 mg/L,” for “400 mg/L”, “of” for “of quercetin, quercetin 3-methyl ether, and”, “DMSO was” for “DMSO were”, “into a” for “into the”

[10] = tested on: lung cancer cells A549; details: Homo sapiens, 48 h incubation, read-out: IC50
Excerpt: as §1
as §1, with “400 mg/L,” for “400 mg/L”, “of” for “of quercetin, quercetin 3-methyl ether, and”, “DMSO was” for “DMSO were”, “into a” for “into the”

IC50 [1]: 21.6 µg/mL (≈ 65.5 µM)
IC50 [2]: 18.6 µg/mL (≈ 56.3 µM)
IC50 [3]: 11.4 µg/mL (≈ 34.5 µM)
IC50 [4]: 13.3 µg/mL (≈ 40.4 µM)
IC50 [5]: 11.1 µg/mL (≈ 33.7 µM)
IC50 [6]: 15.8 µg/mL (≈ 47.9 µM)
IC50 [7]: 31.3 µg/mL (≈ 94.7 µM)
IC50 [8]: 12.3 µg/mL (≈ 37.2 µM)
IC50 [9]: 21.4 µg/mL (≈ 64.8 µM)
IC50 [10]: 17.4 µg/mL (≈ 52.6 µM)
SMILES: COc1cc(-c2oc3cc(O)cc(O)c3c(=O)c2OC)ccc1O [Quercetin 3,3′-dimethyl ether, quercetin 3,3′-dimethyl ether]
